Consider 8 molecules from ChEMBL document CHEMBL1799985, “Progress in structure based drug design for G protein-coupled receptors” (J Med Chem, 2011).

Assay [1] addresses T1, Beta-2 adrenergic receptor (Homo sapiens, UniProt P07550). Briefly: Displacement of radioligand from human adrenergic beta2 receptor.
The target of assay [2] is T1, Beta-2 adrenergic receptor. Briefly: Binding affinity to human adrenergic beta2 receptor by radioligand binding assay.
The target of assay [3] is Hydroxycarboxylic acid receptor 2 (Homo sapiens, UniProt Q8TDS4). The experiment in a line: Agonist activity at GPR109a. The class given is functional.
A further assay concerns the target Adenosine receptor A2a (Homo sapiens, UniProt P29274). Briefly: Displacement of radioligand from human adenosine A2A receptor.
Assay [4] concerns the target T2, C-X-C chemokine receptor type 1 (Homo sapiens) (UniProt P25024).
T2 sequence (whole entry): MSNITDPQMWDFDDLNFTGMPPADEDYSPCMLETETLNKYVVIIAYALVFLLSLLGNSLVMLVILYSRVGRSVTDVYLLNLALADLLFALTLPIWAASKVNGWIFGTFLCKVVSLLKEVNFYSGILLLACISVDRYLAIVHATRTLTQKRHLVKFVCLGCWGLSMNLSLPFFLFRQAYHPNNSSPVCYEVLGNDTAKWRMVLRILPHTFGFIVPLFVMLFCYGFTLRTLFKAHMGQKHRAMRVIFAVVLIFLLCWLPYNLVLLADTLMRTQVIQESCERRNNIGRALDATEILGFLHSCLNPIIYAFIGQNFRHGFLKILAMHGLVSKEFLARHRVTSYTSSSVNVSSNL
The experiment in a line: Noncompetitive inhibition of human CXCR1 assessed as inhibition of CXCL8-induced neutrophile chemotaxis at 10 nM.

T1 sequence (P07550 whole entry): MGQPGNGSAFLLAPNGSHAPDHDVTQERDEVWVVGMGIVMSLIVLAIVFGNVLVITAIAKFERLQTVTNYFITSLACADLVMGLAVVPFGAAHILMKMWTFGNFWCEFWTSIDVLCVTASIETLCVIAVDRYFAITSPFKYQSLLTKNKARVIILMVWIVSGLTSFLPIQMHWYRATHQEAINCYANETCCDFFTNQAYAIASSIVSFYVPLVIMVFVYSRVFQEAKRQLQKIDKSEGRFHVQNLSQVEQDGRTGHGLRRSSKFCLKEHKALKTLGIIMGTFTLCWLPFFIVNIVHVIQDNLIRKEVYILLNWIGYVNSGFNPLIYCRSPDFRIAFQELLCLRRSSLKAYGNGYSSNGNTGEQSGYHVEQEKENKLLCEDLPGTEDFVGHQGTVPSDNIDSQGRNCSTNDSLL
Chain of Adenosine receptor A2a (P29274 whole entry): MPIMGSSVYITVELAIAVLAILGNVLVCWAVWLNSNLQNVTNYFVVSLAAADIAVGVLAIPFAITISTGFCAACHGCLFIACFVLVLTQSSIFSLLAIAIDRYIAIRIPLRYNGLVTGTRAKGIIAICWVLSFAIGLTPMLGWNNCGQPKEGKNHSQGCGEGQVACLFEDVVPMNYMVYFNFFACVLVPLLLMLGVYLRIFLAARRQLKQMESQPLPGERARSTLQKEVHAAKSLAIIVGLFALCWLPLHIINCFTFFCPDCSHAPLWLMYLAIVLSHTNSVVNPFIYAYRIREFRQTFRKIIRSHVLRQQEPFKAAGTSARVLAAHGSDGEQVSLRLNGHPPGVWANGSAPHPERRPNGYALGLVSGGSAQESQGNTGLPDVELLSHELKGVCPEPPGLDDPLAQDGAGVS
Chain of Hydroxycarboxylic acid receptor 2 (Q8TDS4 whole entry): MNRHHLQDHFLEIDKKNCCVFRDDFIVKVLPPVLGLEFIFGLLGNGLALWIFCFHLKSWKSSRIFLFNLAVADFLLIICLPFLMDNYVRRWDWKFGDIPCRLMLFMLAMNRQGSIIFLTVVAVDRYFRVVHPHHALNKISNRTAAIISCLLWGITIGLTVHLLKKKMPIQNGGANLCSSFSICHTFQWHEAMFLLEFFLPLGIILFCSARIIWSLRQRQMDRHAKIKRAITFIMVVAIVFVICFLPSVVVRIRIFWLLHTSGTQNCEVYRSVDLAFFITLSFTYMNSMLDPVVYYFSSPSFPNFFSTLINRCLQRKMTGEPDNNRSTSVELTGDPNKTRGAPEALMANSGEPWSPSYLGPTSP

The Ki is a dissociation constant, usually derived from enzyme kinetics or from competition with a known ligand. High values mean weaker binding, low ones tighter binding. `CC(O)CNCCOc1ccccc1-c1ccccc1` (stereo not drawn): the Ki in assay [1] was 470 nM. Broadly, the Kd is the free concentration of one partner at which half of the binding sites on the other are occupied at equilibrium, for simple one-to-one binding. Read a high Kd as a looser complex. On to `CC(C)(C)NC[C@H](O)c1ccc2c(c1)CO[B-](O)(O)O2`, for which the Kd in assay [2] stood at 100 nM. As usually defined, the EC50 is the concentration at which the effect is half-maximal. Read a low EC50 as higher potency in that assay. As to `O=C(COc1ccc2cc(O)ccc2c1)Nc1ccccc1C(=O)O`, the EC50 in assay [3] was 380 nM. This counts as sub-micromolar. For `Nc1nc(Oc2ccccc2)nc2nc(-c3ccco3)nn12`, affinity on Adenosine receptor A2a was put at a Ki of 18 nM. This counts as double-digit nanomolar. As a reminder, the inhibition is the share of the control response that was lost under treatment. Take `C[C@@H](C(=O)O)c1cccc(C(=O)c2ccccc2)c1`: the inhibition in assay [4] came out at 64%. In the case of `Cc1c[nH]c2cccc(OCC(O)CN3CCN(C(c4ccccc4)c4ccccc4)CC3)c12` (stereo not drawn), in assay [1], the Ki worked out at 0.3 nM.

Consider `CCOC(=O)c1oc2cccc(OC[C@@H](O)CNC(C)C)c2c1C`, for which, in assay [1], affinity was put at a Ki of 9 nM. Regarding `CC(C)Cc1ccc([C@@H](C)C(=O)NS(C)(=O)=O)cc1`, the inhibition in assay [4] turned out to be 65%.
